Laboratory results as given in EP0445156B1, “AGENTS FOR TREATING CHRONIC INFLAMMATORY DISEASES OF THE INTESTINES” (HENNING BERLIN GmbH CHEMIE- UND PHARMAWERK, priority 1988, dated 1990).
Values after ≈ are worked out from the molar mass of the structure shown. Like-named read-outs stand apart in the source and are kept apart here.

Key:
[1] = general statement, no solvent or temperature given; cited from earlier work
[2] = Solubility; assay type: physicochemical; conditions: read-out: Löslichkeit
Method: (§1) Bei diesem Natrium-Salz handelt es sich um Mono-Natriumoxipurinol-Monohydrat. Das Salz ist weiß und kristallisiert in feinen Nadeln. In wäßriger Lösung reagiert es alkalisch, eine 5%ige Lösung besitzt einen pH-Wert von 9,7. Seine Löslichkeit beträgt: in Wasser bei 25°C 15,8 g/l 0°C 7,2 g/l in Methanol/Wasser (3:1 Vol.) bei 25°C ca. 2,0 g/l

[3] = test system: durch TNB (Trinitrobenzoesulfonsäure) ausgelösten Colitis der Ratte; assay: Biochemical proof of the anti-inflammatory effect in TNB-induced colitis of the rat (purine nucleotides, TBA-RS in gut samples); assay type: in vivo; conditions: 21. Tag, 5 mg oral every 8 h, day 3-21
Method: (§2) Bei 10 Ratten (Körpermaße: 200-250 g) wurde durch rektale Instillation von 25 mg TNB (in 0,25 ml 30%iger ethanolischer Lösung) eine Colitis ausgelöst. Eine in gleicher Weise behandelte Gruppe von 10 Tieren erhielt vom 3. - 21. Tage nach der TNB-Gabe im Abstand von 8 Stunden 5 mg Oxipurinol-Na, das in 0,5 ml Glucoselösung aufgelöst war, oral über eine Schlundsonde verabreicht. Eine weitere Gruppe von 10 Tieren erhielt lediglich 0,25 ml der 30%igen Ethanollösung rektal instilliert, und weitere 10 Tiere dienten als Kontrolle.
Bei den im Beispiel 13 charakterisierten Tiergruppen wurden am 21. Tag Darmproben auf den Gehalt an Purinnukleotiden und Lipidperoxydationsprodukten (Thiobarbitursäure-reaktive Substanzen: TBA-RS) hin untersucht.
Die nach TNB-Applikation erhöhte Konzentration von TBA-RS wird durch Oxipurinol-Na-Zugabe auf46 % gesenkt und liegt damit sogar noch unter den Kontrollwerten. Danach verhindert Oxipurinol-Na den durch TNB ausgelösten Abfall der Adenin-'und Guaninnukleotide und die gesteigerte Lipidperoxydation.

[4] = test system: durch TNB (Trinitrobenzoesulfonsäure) ausgelösten Colitis der Ratte; assay: Histological proof of the anti-inflammatory effect in TNB-induced colitis of the rat; assay type: in vivo; conditions: 25 mg TNB rektal, 5 mg oral über Schlundsonde im Abstand von 8 Stunden, 3. - 21. Tag, TNB alone: Grad II - III
Method: as §2
Der Darm (Rectum) der mit TNB behandelten Tiere zeigte eine chronisch-rezidivierende Colitis Grad II - III. Bei einigen Tieren wurden inkomplette Erosionen, insbesondere in den über den Lymphfollikeln gelegenen Stellen des Oberflächenepithels, sehr dichte Infiltrate in der Submukosa und reichlich perivaskulär gelegene Mastzellen im umgebenden Fettgewebe, beobachtet. Die mit TNB und Oxipurinol-Na behandelten Tiere zeigten deutlich geringer ausgeprägte Entzündungemerkmale (Grad I): eine geringfügige Vermehrung von Lymphozyten und Mastzellen sowie ein geringes Ödem.

[5] = pH of aqueous solution; assay type: physicochemical; conditions: 5%ige wäßrige Lösung
From the text: Aus der DE-OS 37 07 999 ist bekannt, Oxipurinol zur Verminderung von Zellschäden nach der Ischämie und vor der Reperfusion zu verwenden, und zwar durch intravenöse Verabreichung eines Alkalimetallsalzes, insbesondere des Natriumsalzes. Aus den Beispielen geht jedoch hervor, daß nicht das reine Natriumsalz verwendet wurde, sondern ein Gemisch aus Salz und überschüssiger Natronlauge. Dies ergibt sich vor allem aus den pH-werten der ca. 1 bis 2%-igen Lösungen von 11,5 bzw. 12,0. Das jetzt erstmals von der Anmelderin in reiner und kristalliner Form hergestellte Natriumsalz besitzt in 5%-iger wäßriger Lösung einen pH-wert von 9,7 und kristallisiert als Monohydrat aus.
as §1

[6] = Stability of the solid salt (air, drying temperature); assay type: physicochemical
Method: Das Salz ist luftbeständig und verträgt Trockentemperaturen bis etwa 70°C. Aus seiner heißen Lösung läßt sich mit verdünnter Salzsäure (10%ig) Oxipurinol fast quantitativ ausfällen.

solubility ([2]; methanol/water (3:1 vol.), organic solvent or mixture, in Methanol/Wasser (3:1 Vol.) bei 25°C)	solubility ([2]; water, in Wasser bei 0°C)	solubility ([2]; water, in Wasser bei 25°C)	pH-Wert [5]	Luftbeständigkeit [6]	verträgt Trockentemperaturen ([6]; drying)	SMILES	Löslichkeit (in words) [1]	Gehalte an Adenin- und Guaninnukleotiden (Darmproben) versus Ethanol- und Kontrollgruppe [3]	Entzündungsmerkmale / Colitis Grad (Rectum, histologisch) [4]
–	–	–	–	–	–	O=c1[nH]c(=O)c2c[nH]nc2[nH]1 [Oxipurinol]	sehr schwer löslich	–	–
~2000 µg/mL (≈ 13.1 mM)	7200 µg/mL (≈ 47.3 mM)	15800 µg/mL (≈ 104 mM)	9,7	luftbeständig	≤ 70 °C	O=c1[nH]c(=O)c2cn[nH]c2[nH]1 [Oxipurinol-Natrium, Mono-Natriumoxipurinol-Monohydrat]	–	unterschieden sich nicht signifikant	Grad I
